Test results taken from patent publication US11793818B2, “Method for treating conditions associated with hyperproliferating cells comprising combined administration of a cannabinoid receptor agonist and radiation therapy” (Theralase Technologies, Inc., priority 2018, dated 2023).

System: Glioma cells
Assay: Glioma cell kill (presto blue) after d9-THC pre-treatment and PDT with 14C PDC
Type: cell-based
Settings: 40 μM d9-THC, no PDT
Description: Glioma cells were treated with delta9-tetrahydrocannabinol (“d9-THC”) for 24 hours prior to treatment with 14C PDC and light activated. Five concentrations of d9-THC were used (0, 5, 10, 20, 40 μM). As a significant effect was only observed with a d9-THC concentration of 40 μM, only the results obtained at this concentration are shown (see FIG. 1). After 24 hours, cells were treated with 14C PDC for 4 hours, PDT was performed using green light (20 J/cm^2) and plates were incubated overnight for presto blue on the following day. The PDT dose used was decreased to induce 10-15% cell kill in order to highlight any additive/synergistic effect of the combination that might otherwise be masked if a higher dose had been used.
Absolute cell kill values are shown with error bars representing standard deviations between wells. The hypothetical additive effect represents the hypothetical cell kill percentage had the combined effect merely been additive. Reading from left to right in FIG. 1: the first bar is the control; the second bar is d9-THC only; the third bar is light activated 14C PDC only; the fourth bar is hypothetical cell kill percentage of d9-THC combined with 14C PDC light activated; and the fifth bar is PDT (light activated 14C PDC) combined with the tested cannabinoid. PDT alone (light activated 14C PDC) induced 10% cell kill. 40 μM of d9-THC induced 10% cell kill.

CCCCCc1cc(O)c2c(c1)OC(C)(C)[C@@H]1CCC(C)=C[C@@H]21 [d9-THC, delta9-tetrahydrocannabinol]
cell kill, d9-THC only: 10%
